Results taken from ChEMBL document CHEMBL1201862, “PubChem BioAssay data set” (2004).
Values belong to the compound of their own block, whether it stands above or below them. Active and inactive are the calls of the source.

How the values were obtained:
[1] = P. falciparum Dd2 blood-stage growth inhibition, dose response, SYBR Green fluorescence, erythrocytes, dry powder, set 2 (AID 1159574); format: functional, cell-based
[2] = cells; format: functional, cell-based; settings: INS-1E
[3] = Dose-response inhibition of insulin secretion in a rat insulinoma line at 5 mM glucose (AID 1117331); format: functional, cell-based; settings: INS-1E
[4] = HeLa 4N DNA content increase, dose response, cell-based, IC50 (AID 1117351); format: functional
[5] = HeLa 2N DNA content increase, dose response, cell-based, IC50 (AID 1117349); format: functional
[6] = NIH-3T3 fibroblast cytotoxicity, dose response, cytotoxicity control, cell-based, fluorescence, Alamar Blue, secondary assay (AID 2327); format: functional;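 further: NIH-3T3 mouse fibroblasts cultured with fluconazole at 8 µg/mL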
[7] = biological target: E3 ubiquitin-protein ligase UHRF1 (Homo sapiens, UniProt Q96T88); assay: Counterscreen for inhibitors of 5-meCpG-binding domain protein 2 (MBD2): TRFRET-based biochemical high throughput dose response assay to identify inhibitors of binding of ubiquitin-like with PHD and ring finger domains 1 (UHRF1) to methylated oligonucleotide.
[8] = C. albicans growth with fluconazole, confirmation, fluorescence, retest (AID 2467); format: functional, cell-based
[9] = biological target: Protein Tat (Human immunodeficiency virus type 1 group M subtype B (isolate HXB2)(HIV-1), UniProt P04608); format: functional;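 further: tat binding to TAR RNA read out by fluorescence polarization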
[10] = biological target: Trypsin (Sus scrofa, UniProt P00761); assay: porcine trypsin inhibitors, dose response, selectivity assay for Rce1 protease inhibitor project, biochemical, quenched peptide fluorescence, cherry-pick (AID 488789)
[11] = biological target: T1, CAAX prenyl protease 2 (Homo sapiens, UniProt Q9Y256); assay: human Rce1 protease inhibitors, dose response, biochemical, yeast membranes, quenched-peptide fluorescence, cherry-pick (AID 588849)
T1 sequence (Q9Y256 whole entry): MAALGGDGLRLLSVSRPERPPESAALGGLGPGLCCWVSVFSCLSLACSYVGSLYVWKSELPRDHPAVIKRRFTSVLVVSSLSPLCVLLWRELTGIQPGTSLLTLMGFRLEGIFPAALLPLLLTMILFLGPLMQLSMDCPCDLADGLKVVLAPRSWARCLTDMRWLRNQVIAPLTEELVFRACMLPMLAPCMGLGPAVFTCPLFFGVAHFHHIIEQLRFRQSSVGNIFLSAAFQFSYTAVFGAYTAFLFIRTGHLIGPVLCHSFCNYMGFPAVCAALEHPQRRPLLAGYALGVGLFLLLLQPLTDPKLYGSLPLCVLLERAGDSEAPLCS

[12] = biological target: Kallikrein-7 (Homo sapiens, UniProt P49862); assay: Fluorescence Intensity-based biochemical primary high throughput dose response assay to identify activators of kallikrein-7 (K7) zymogen.
[13] = biological target: T2, CAAX prenyl protease 2 (Saccharomyces cerevisiae S288c, UniProt Q03530); format: biochemical
T2 sequence (Q03530 whole entry): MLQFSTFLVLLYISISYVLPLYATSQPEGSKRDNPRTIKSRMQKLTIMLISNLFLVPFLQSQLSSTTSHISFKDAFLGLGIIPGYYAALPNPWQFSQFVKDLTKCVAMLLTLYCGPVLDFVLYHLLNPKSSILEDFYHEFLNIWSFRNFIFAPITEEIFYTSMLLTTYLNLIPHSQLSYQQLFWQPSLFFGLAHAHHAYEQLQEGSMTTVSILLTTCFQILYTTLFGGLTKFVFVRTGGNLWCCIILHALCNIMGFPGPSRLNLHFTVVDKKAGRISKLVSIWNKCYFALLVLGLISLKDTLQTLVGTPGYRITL

[14] = biological target: T3, Mannose-6-phosphate isomerase (Homo sapiens, UniProt P34949); assay: human PMI inhibitors, high substrate, primary screen, biochemical, fluorescence intensity, high mannose 6-phosphate (AID 1220)
T3 sequence (P34949 whole entry): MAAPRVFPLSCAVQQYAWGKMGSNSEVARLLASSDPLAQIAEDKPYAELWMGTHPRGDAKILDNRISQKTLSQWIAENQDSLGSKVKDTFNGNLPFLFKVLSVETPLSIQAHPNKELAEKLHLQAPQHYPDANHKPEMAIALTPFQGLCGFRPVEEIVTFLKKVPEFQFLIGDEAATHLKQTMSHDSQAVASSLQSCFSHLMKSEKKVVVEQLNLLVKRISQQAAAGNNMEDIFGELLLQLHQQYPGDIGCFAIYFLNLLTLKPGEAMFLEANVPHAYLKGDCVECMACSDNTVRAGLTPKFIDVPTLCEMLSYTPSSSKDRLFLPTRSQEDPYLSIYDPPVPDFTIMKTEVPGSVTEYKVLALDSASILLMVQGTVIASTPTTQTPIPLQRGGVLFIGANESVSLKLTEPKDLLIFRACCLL

Sequence of Trypsin (P00761 whole entry): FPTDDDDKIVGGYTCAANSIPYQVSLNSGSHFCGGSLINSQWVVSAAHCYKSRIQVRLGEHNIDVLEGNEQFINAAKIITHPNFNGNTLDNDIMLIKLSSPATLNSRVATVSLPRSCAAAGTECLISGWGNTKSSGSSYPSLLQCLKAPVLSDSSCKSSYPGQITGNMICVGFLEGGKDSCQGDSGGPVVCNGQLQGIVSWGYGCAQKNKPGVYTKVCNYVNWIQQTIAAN
Sequence of Protein Tat (P04608 whole entry): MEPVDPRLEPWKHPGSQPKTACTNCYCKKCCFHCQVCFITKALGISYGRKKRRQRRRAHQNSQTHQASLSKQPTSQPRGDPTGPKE
Sequence of Kallikrein-7 (P49862 whole entry): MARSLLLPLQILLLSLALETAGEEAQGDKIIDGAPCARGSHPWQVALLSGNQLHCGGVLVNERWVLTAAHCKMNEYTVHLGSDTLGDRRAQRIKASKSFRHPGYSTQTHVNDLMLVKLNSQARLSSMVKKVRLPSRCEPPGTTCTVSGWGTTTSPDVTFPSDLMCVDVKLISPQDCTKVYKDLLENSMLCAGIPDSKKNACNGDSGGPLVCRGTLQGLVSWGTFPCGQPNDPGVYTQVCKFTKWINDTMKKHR
Sequence of E3 ubiquitin-protein ligase UHRF1 (Q96T88 whole entry, the tested form may be a part): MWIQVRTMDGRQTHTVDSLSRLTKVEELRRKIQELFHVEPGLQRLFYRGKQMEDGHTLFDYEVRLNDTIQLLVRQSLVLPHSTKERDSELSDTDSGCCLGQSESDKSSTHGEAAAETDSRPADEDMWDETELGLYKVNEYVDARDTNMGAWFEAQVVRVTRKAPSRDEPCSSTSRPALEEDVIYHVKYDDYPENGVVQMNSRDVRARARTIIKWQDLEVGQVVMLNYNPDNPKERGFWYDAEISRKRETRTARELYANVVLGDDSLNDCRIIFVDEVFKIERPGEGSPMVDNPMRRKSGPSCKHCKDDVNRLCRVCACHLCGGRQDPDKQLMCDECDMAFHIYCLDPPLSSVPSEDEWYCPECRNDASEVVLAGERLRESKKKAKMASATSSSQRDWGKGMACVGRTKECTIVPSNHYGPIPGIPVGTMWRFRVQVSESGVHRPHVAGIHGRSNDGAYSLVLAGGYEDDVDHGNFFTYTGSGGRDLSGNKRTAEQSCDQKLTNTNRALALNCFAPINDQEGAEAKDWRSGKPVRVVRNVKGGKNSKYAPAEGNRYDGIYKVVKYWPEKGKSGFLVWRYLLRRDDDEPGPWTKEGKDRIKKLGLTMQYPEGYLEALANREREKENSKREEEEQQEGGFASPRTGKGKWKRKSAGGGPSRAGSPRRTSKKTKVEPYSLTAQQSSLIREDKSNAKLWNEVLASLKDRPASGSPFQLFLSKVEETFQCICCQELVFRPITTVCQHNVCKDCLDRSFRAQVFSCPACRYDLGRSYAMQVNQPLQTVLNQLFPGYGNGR

Compound: COc1cccc(C#Cc2ccc([C@@H]3[C@@H](CO)N4C(=O)CN(C(=O)Cc5ccccc5)C[C@@H]34)cc2)c1
AC50 [1]: 4.88 µM (active)

Compound: Cc1ccc(CCn2c3c(c4cc(Cl)ccc42)CN(C)CC3)cn1 [DORASTINE]
IC50 [2]: > 33.3 µM (inactive)
IC50 [3]: 4.2 µM (active)
IC50 [4]: > 10 µM (inactive)
IC50 [5]: > 10 µM (inactive)

Compound: Cc1ccc(-c2cc(-c3ccccc3)cc(-c3ccccc3)[n+]2-c2ccccc2C(=O)O)cc1.[O-][Cl+3]([O-])([O-])[O-]
EC50 [6]: > 160 µM (inactive)
IC50 [7]: 18.9 µM (inactive)
EC50 [8]: 3.23 µM (inconclusive)

Now from value to compound:

IC50 [9]: > 100 µM (active)
Compound: O=C(NCCN1CCN(c2ccccc2)CC1)C1CCN(S(=O)(=O)c2cccc3nonc23)CC1

AC50 [10]: 9.06 µM (active)
AC50 [11]: 10 µM (active)
EC50 [12]: > 69.5 µM (inactive)
AC50 [13]: 12 µM (active)
Compound: Cc1oc2c(CN3CCCC3)c(O)ccc2c(=O)c1-c1ccc(Br)cc1

AC50 [10]: 13.6 µM (active)
AC50 [11]: 20 µM (active)
IC50 [14]: > 50 µM (not active)
Compound: COc1cc2c(C#N)c(N3CCCCC3)nc(N)c2c(N)n1
